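48-hour exposure; five concentrations; linearly interpolated endpoints. The concentration for 50% growth inhibition is given as GI50.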 The source made the active and inactive calls. Rule as the data show it: active = GI50 up to about 1.1 µM and inactive = higher.
Experiments:
Test in all cases: NCI tumour cell line growth inhibition, 48 h
[1] = tested on: CAKI-1
[2] = tested on: CCRF-CEM
[3] = tested on: COLO 205
[4] = tested on: DU-145
[5] = tested on: K562
[6] = tested on: KM12
[7] = tested on: M14
[8] = tested on: MCF7
[9] = tested on: OVCAR-4
[10] = tested on: OVCAR-5
[11] = tested on: RPMI-8226
[12] = tested on: SF-295
[13] = tested on: SF-539
[14] = tested on: SK-MEL-28
[15] = tested on: SNB-75
[16] = tested on: UACC-257
[17] = tested on: MOLT-4
[18] = tested on: SNB-19
[19] = tested on: SR

Measured: GI50

O=C(NI1OC(=O)c2ccccc21)c1ccc(Cl)cc1
inactive: [1] > 100 µM | [2] 85.5 µM | [3] > 100 µM | [4] > 100 µM | [5] 28.4 µM | [6] > 100 µM | [7] > 100 µM | [8] > 100 µM | [9] > 100 µM | [10] > 100 µM | [11] > 100 µM | [12] > 100 µM | [13] > 100 µM | [14] > 100 µM | [15] > 100 µM | [16] > 100 µM

COc1ccc(CNc2nc3cc(C(F)(F)F)ccc3nc2-c2ccccc2)cc1OC
inactive: [1] 18 µM | [2] 22.6 µM | [3] 35.1 µM | [4] 87.5 µM | [5] 26.1 µM | [6] 29.5 µM | [7] 49.3 µM | [8] 16.1 µM | [17] 25.5 µM | [9] 43.1 µM | [10] 71.1 µM | [12] 29.4 µM | [13] 45.9 µM | [18] > 100 µM | [15] 37.3 µM | [19] 15.3 µM | [16] 28.4 µM

Cc1ccc(C)n1-c1ccccc1C1SCCCS1
inactive: [1] > 100 µM | [2] 59.8 µM | [3] > 100 µM | [4] > 100 µM | [5] > 100 µM | [6] > 100 µM | [7] 57.1 µM | [8] 37.3 µM | [17] > 100 µM | [9] > 100 µM | [10] > 100 µM | [11] > 100 µM | [12] 54.1 µM | [13] > 100 µM | [14] > 100 µM | [18] > 100 µM | [15] 84.5 µM | [16] > 100 µM

CCP(=O)(OC)C1=CCN(C(=O)OCC[Si](C)(C)C)CC1 (centres undefined)
inactive: [1] > 100 µM | [2] > 100 µM | [3] > 100 µM | [4] > 100 µM | [5] > 100 µM | [6] > 100 µM | [7] > 100 µM | [8] > 100 µM | [17] > 100 µM | [9] > 100 µM | [10] > 100 µM | [11] > 100 µM | [12] > 100 µM | [13] 72.9 µM | [14] > 100 µM | [18] > 100 µM | [15] > 100 µM | [16] > 100 µM
